Measurements taken from PubChem BioAssay AID1963970 (Molecular Pharmacology Branch, DTP, NCI, 2024).

System: 931267-113-T-J1-PDC multicell spheroid viability
Experiment: Anticancer human tumor 931267-113-T-J1-PDC patient-derived colon adenocarcinoma cell line growth inhibition [PI3K]
Conditions: for IC50: curve of first compound; for viability, T/C: stronger effect = lower value
Outline: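 Spheroid viability read-out. Co-cultures contained the tumor line plus HUVEC and human MSCs. Each agent was paired with a PI3K inhibitor (inavolisib, alpelisib, duvelisib, copanlisib) across half-log dilutions starting at clinical Cmax, or at 10 microM when Cmax was unknown.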
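Note: viability read 7 days after compound addition.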

## CCN1CCN(Cc2ccc(Nc3ncc(F)c(-c4cc(F)c5nc(C)n(C(C)C)c5c4)n3)nc2)CC1 + COc1c(OCCCN2CCOCC2)ccc2c3n(c(=NC(=O)c4cnc(N)nc4)nc12)CCN3
Second compound 0.00316 µM
  IC50: > 1000 nM
Second compound 0.01 µM
  IC50: > 1000 nM
Second compound 0.0316 µM
  IC50: > 1000 nM
Second compound 0.1 µM
  IC50: 88.8 nM
Second compound 0.316 µM
  IC50: < 3.16 nM
Second compound 1 µM
  IC50: < 3.16 nM
Second compound 0.00316 µM, first compound 0.00316 µM
  viability, T/C: 91.3%
Second compound 0.00316 µM, first compound 0.01 µM
  viability, T/C: 105%
Second compound 0.00316 µM, first compound 0.0316 µM
  viability, T/C: 97.3%
Second compound 0.00316 µM, first compound 0.1 µM
  viability, T/C: 98.7%
Second compound 0.00316 µM, first compound 0.316 µM
  viability, T/C: 94.2%
Second compound 0.00316 µM, first compound 1 µM
  viability, T/C: 81.7%
Second compound 0.01 µM, first compound 0.00316 µM
  viability, T/C: 103%
Second compound 0.01 µM, first compound 0.01 µM
  viability, T/C: 89.4%
Second compound 0.01 µM, first compound 0.0316 µM
  viability, T/C: 87.6%
Second compound 0.01 µM, first compound 0.1 µM
  viability, T/C: 90.2%
Second compound 0.01 µM, first compound 0.316 µM
  viability, T/C: 89%
Second compound 0.01 µM, first compound 1 µM
  viability, T/C: 67%
Second compound 0.0316 µM, first compound 0.00316 µM
  viability, T/C: 84.3%
Second compound 0.0316 µM, first compound 0.01 µM
  viability, T/C: 79.1%
Second compound 0.0316 µM, first compound 0.0316 µM
  viability, T/C: 76.8%
Second compound 0.0316 µM, first compound 0.1 µM
  viability, T/C: 70.8%
Second compound 0.0316 µM, first compound 0.316 µM
  viability, T/C: 67.2%
Second compound 0.0316 µM, first compound 1 µM
  viability, T/C: 55.5%
Second compound 0.1 µM, first compound 0.00316 µM
  viability, T/C: 66.3%
Second compound 0.1 µM, first compound 0.01 µM
  viability, T/C: 65.6%
Second compound 0.1 µM, first compound 0.0316 µM
  viability, T/C: 57.2%
Second compound 0.1 µM, first compound 0.1 µM
  viability, T/C: 47.5%
Second compound 0.1 µM, first compound 0.316 µM
  viability, T/C: 49.2%
Second compound 0.1 µM, first compound 1 µM
  viability, T/C: 50.8%
Second compound 0.316 µM, first compound 0.00316 µM
  viability, T/C: 53.5%
Second compound 0.316 µM, first compound 0.01 µM
  viability, T/C: 44.7%
Second compound 0.316 µM, first compound 0.0316 µM
  viability, T/C: 39.6%
Second compound 0.316 µM, first compound 0.1 µM
  viability, T/C: 37.3%
Second compound 0.316 µM, first compound 0.316 µM
  viability, T/C: 41.6%
Second compound 0.316 µM, first compound 1 µM
  viability, T/C: 45%
Second compound 1 µM, first compound 0.00316 µM
  viability, T/C: 33.6%
Second compound 1 µM, first compound 0.01 µM
  viability, T/C: 35.6%
Second compound 1 µM, first compound 0.0316 µM
  viability, T/C: 25.3%
Second compound 1 µM, first compound 0.1 µM
  viability, T/C: 32.3%
Second compound 1 µM, first compound 0.316 µM
  viability, T/C: 35.9%
Second compound 1 µM, first compound 1 µM
  viability, T/C: 36.7%
